The values below come from patent US20040236519A1, “Libraries of confomationally constrained peptides, chiral azacrowns, and peptidomimetics and methods of making the same” (priority 2001, published 2004).

A value given as a limit tells only on which side of the number the result lay.

Data set [1] can be described thus: Competitive metal binding by ESI-MS. It is filed as physicochemical. As to the method:
The ability of these peptides to bind metals was determined by electrospray-ionization mass spectrometry (hereinafter “ESI-MS”). ESI-MS has been successfully used to study a wide variety of non-covalent interactions owing to the gentle nature of the electrospray-ionization process that allows non-covalent complexes to be introduced intact into the gas phase. Thus, ESI-MS provides equilibrium information about the solution and the relative abundance of different peptide-metal binding complexes. The peptide ligands were dissolved in 50% CH3CN or methanol and then diluted to 10 mM solution with 1 mM of CH3COONH4/10% CH3OH solution. Stock solutions (200 uM) of the metal ions (CuSO4, NiSO4, ZnSO4, HgSO4. Co(NO3)2) were made. 40 ul of the ligand solution was mixed with 40 ul of the metal-ion solution, diluted with methanol or 1 mM of CH3COONH4. The solution was treated with KOH to form the complex. Competitive binding was used to study the relative metal-binding properties of each ligand by adding two different metal ions.

For data set [2] the following is noted: Giblin et al., cited from earlier work; for binding affinity reduced compared with the disulfide parent: rhenium complex.
For data set [3], the target named is Potassium Channel, ATP-Sensitive. To be noted: cited from earlier work.
For data set [4], the target named is Sodium, Site 2. Conditions: cited from earlier work.
Data set [5] addresses Potassium Channel, Ca2+ Act., VS. To be noted: cited from earlier work.
Data set [6] deals with Potassium Channel, ATP-Sensitive. In words: Radioligand binding assay, potassium channel, ATP-sensitive (NOVASCREEN). To be noted: 1.0E−5 (single dose 10 μM); average, N = 2. As to the method: (§1) Evaluation of M40403 and M40401 in the following radioligand binding assays: potassium channels (ATP-sensitive, Ca2+Act., VI, potassium channel, CA2+Act., VS) and sodium channels (site 1 and site 2). M40403 and M40401 were tested at a single does of 10 µM. The list of an appropriate radioligand used in each ion channel assay is shown in Table 1. […].
(§2) Screening assays can provide valuable information about a compound's biological activity and selectivity. NOVASCREEN Biosciences Corporation of Hanover, Md. was used for these assays. To understand and assess the data, these guidelines are to be used for interpretation of the data presented:
(§3) In most assays, our standard baseline range runs from −20% to +20% inhibition of binding or enzyme activity. […]. NOVASCREEN's assays are designed to test for inhibition of binding or enzyme activity. […]. NOVASCREEN uses a criteria of 50% inhibition (or greater) to qualify a compound as active. Active compounds tested at multiple concentrations can generally be expected to show a dose-dependent response and such follow-up studies are recommended.

Data set [7] has as its system Potassium Channel, Ca2+ Act., VI. In words: Radioligand binding assay, potassium channel, Ca2+ Act., VI (NOVASCREEN). To be noted: 1.0E−5 (single dose 10 μM); average, N = 2. How it is done: as §1, §2, §3
Data set [8] concerns Potassium Channel, Ca2+ Act., VS. The experiment in a line: Radioligand binding assay, potassium channel, Ca2+ Act., VS (NOVASCREEN). Conditions: 1.0E−5 (single dose 10 μM); average, N = 2. How it is done:
as §1, §2, §3

A further data set deals with Sodium, Site 1. The experiment in a line: Radioligand binding assay, sodium channel site 1 (NOVASCREEN). To be noted: 1.0E−5 (single dose 10 μM); average, N = 2. How it is done:
as §1, §2, §3

Data set [9] relates to Sodium, Site 2. The experiment in a line: Radioligand binding assay, sodium channel site 2 (NOVASCREEN). Conditions: 1.0E−5 (single dose 10 μM); average, N = 2. As to the method: as §1, §2, §3
Another data set concerns the target T1, human opioid μ receptor (Homo sapiens, UniProt P35372).
T1 construct: expressed in transfected cells; host or cells: CHO cells, membranes
The experiment in a line: Opioid receptor binding, [3H]DAMGO, CHO cell membranes. As to the method: (§4) Evaluation of M40403 binding affinity for opioid receptors in vitro radioligand binding assays. Referring to FIGS. 6-11, receptor binding studies were conducted on human opioid receptors transfected into Chinese hamster ovary (CHO) cells. The μ cell line is maintained in Ham's F-12 medium supplemented with 10% fetal bovine serum and 400 μg/ml GENETICIN (G418 sulfate). The δ cell line is maintained in Ham's F-12 medium supplemented with 10% fetal bovine serum and 500 μg/ml hygromycin B. The k cell line is maintained in Dulbecco's minimal essential medium (DMEM) supplemental with 10% fetal bovine serum, 400 μg/ml GENETICIN (G418 sulfate) and 0.1% penicillin/streptomycin. All cell lines are grown to full confluency, then harvested for membrane preparation. The membrane for binding assays is prepared in 50 mM Tris buffer, pH 7.7. Cells are harvested by scraping the plates with a rubber policeman and then centrifuged at 500×g for 10 minutes. The cell pellet is suspended in buffer A or Tris buffer, homogenized in a Polytron Homogenizer, and centrifuged at 20,000×g for 20 minutes. The cell pellet is washed in buffer A or Tris, centrifuged at 20,000×g for another 20 minutes and finally suspended in a small amount of buffer to determine protein content. Membrane is aliquoted in small vials at a concentration of 6 mg/ml per vial and stored at −70° C. and used as needed.
(§5) Routine binding assays were conducted using [^3H]DAMGO, [^3H]C1-DPDPE, and [^3H]U69,593 to bind to μ, δ and k receptors, respectively. […] Filters are dried overnight before radioactivity levels are determined. Nonspecific binding is determined by using 1.0 μM of the unlabeled counterpart of each radioligand.
(§6) Full characterization of compounds includes analysis of the data for IC50 values and Hill coefficients by using the program PRIMS. Ki values are calculated using the Cheng Prusoff transformation: [formula]
(§7) where L is radioligand concentration and Kd is the binding affinity of the radioligand, as determined previously by saturation analysis. […]

The target of another data set is T2, human opioid δ receptor (Homo sapiens, UniProt P41143).
T2 construct: expressed in transfected cells; host or cells: CHO cells, membranes
The experiment in a line: Opioid receptor binding, [3H]Cl-DPDPE, CHO cell membranes. How it is done:
as §4, §5, §6, §7

A further data set has as its target T3, human opioid k receptor (Homo sapiens, UniProt P41145).
T3 construct: expressed in transfected cells; host or cells: CHO cells, membranes
The experiment in a line: Opioid receptor binding, [3H]U69,593, CHO cell membranes. To be noted: human receptor in CHO cell membranes, Cheng Prusoff. As to the method: Evaluation of M40403 binding affinity for opioid receptors in vitro radioligand binding assays. Referring to FIGS. 6-11, receptor binding studies were conducted on human opioid receptors transfected into Chinese hamster ovary (CHO) cells. The μ cell line is maintained in Ham's F-12 medium supplemented with 10% fetal bovine serum and 400 μg/ml GENETICIN (G418 sulfate). The δ cell line is maintained in Ham's F-12 medium supplemented with 10% fetal bovine serum and 500 μg/ml hygromycin B. The k cell line is maintained in Dulbecco's minimal essential medium (DMEM) supplemental with 10% fetal bovine serum, 400 μg/ml GENETICIN (G418 sulfate) and 0.1% penicillin/streptomycin. […]
as §5, §6, §7

Data set [10] deals with Potassium Channel, Ca2+ Act., VI. To be noted: radioligand of the assay; cited from earlier work.
[11] abbreviates: human receptor in CHO cell membranes, Cheng Prusoff.

T2 sequence (P41143 whole entry): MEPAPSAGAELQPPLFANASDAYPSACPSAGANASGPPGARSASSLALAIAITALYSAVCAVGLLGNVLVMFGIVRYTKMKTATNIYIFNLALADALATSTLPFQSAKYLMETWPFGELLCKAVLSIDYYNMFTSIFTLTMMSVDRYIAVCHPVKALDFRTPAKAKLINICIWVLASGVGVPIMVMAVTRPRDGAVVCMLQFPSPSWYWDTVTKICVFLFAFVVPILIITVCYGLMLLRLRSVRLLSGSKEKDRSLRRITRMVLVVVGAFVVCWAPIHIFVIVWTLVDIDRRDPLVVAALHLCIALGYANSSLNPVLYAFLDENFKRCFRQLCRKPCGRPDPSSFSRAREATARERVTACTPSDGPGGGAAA
T1 sequence (P35372 whole entry): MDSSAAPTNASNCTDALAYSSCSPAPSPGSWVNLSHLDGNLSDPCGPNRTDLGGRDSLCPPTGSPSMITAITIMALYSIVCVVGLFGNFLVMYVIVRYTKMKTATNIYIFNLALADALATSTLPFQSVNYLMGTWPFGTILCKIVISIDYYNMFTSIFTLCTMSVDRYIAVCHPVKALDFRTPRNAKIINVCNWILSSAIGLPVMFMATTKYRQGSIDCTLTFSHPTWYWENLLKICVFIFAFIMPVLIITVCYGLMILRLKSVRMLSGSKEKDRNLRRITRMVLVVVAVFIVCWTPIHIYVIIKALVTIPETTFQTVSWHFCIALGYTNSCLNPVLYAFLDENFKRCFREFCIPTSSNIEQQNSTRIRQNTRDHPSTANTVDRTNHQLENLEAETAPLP
T3 sequence (P41145 whole entry): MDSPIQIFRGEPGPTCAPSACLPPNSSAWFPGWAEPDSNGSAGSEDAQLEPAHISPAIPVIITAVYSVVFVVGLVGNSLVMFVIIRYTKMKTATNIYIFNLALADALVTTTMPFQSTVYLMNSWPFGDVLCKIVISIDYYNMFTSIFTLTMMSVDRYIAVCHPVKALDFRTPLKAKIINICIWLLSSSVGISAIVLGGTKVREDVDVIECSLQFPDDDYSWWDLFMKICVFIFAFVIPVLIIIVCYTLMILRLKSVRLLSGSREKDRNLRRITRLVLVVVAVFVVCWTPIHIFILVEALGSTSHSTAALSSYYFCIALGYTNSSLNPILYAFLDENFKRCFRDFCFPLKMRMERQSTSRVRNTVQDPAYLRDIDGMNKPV

Regarding “H-Val-Ψ(CONOH)-Phe-Ala-Pro-Leu-CONOH [compound 14]”, the metal-binding ability entry in data set [1] (among the peptides containing two hydroxymate groups, competitive binding) is given as “strongest metal-binding ability”. In data set [1] (competitive binding with two different metal ions), the metal-binding specificity entry is given as “Cu(II)>Co(II)>Fe(III)>Cd(II)>Zn(II)>Ni(II)”.
[Cys^4,10, D-Phe7]-α-Msh4-13: the “binding affinity reduced compared with the disulfide parent” value in data set [2] is “approximately 100 fold”.
Regarding `COc1ccc(Cl)cc1C(=O)NCCc1ccc(S(=O)(=O)NC(=O)NC2CCCCC2)cc1` [Glibenclamide], in data set [3] (reference compound, radioligand [3H]Glibenclamide, read-out: Ki (M) Ref. Cpd.), the Ki was 7.85e-10 M.
With `CCN1C[C@]2(COC)[C@H](O)C[C@H](OC)[C@@]34[C@@H]5C[C@@]6(O)[C@H](OC(=O)c7ccccc7)[C@@H]5[C@@](OC(C)=O)([C@@H]([C@H](OC)[C@H]23)[C@@H]14)[C@@H](O)[C@@H]6OC` [Aconitine], at Sodium, Site 2 [4] (reference compound, radioligand [3H]Bactrachotoxin A 20-a-Benzo, read-out: Ki (M) Ref. Cpd.), the Ki is 8.38e-07 M.
As to Charybdotoxin, the Ki in data set [5] (reference compound, radioligand [125I]Charybdotoxin, read-out: Ki (M) Ref. Cpd.) is 5.12e-10 M.
For [3H]Bactrachotoxin A 20-a-Benzo, the Kd at Sodium, Site 2 [4] (radioligand of the assay) is 32 nM.
For the molecule `COc1ccc(Cl)cc1C(=O)NCCc1ccc(S(=O)(=O)NC(=O)NC2CCCCC2)cc1` [[3H]Glibenclamide], the Kd in [3] (radioligand of the assay) is 0.25 nM.
For the molecule `[Cl-].[Cl-].[Mn+2].c1cc2nc(c1)CN[C@@H]1CCCC[C@H]1NCCN[C@@H]1CCCC[C@H]1NC2` [M40403], the “Percent Inhibition” value in [6] is recorded as 4.67%; in data set [7], 30.35%; in data set [8], 9.72%; with Sodium, Site 1, −19.68%; in the data set with Sodium, Site 2 [9] it was 93.84%. Further, the IC50 at human opioid μ receptor (Hot Ligand [3H]DAMGO, Jul. 2, 1999 and confirmation Jul. 5, 1999, read-out: IC50, MU Binding) is above 10000 nM; at human opioid δ receptor (Hot Ligand [3H]DPDPE-CL, Jul. 2, 1999 and confirmation Jul. 5, 1999, read-out: IC50, Delta Binding) it was above 10000 nM. Also, the Ki on human opioid μ receptor (setting [11]) is above 10000 nM; on human opioid δ receptor (setting [11]), above 10000 nM; at human opioid k receptor it was around 240 nM; on human opioid k receptor (listed as 20,636), 240 ± 121 nM. Further, the “affinity for mu receptors” value at human opioid μ receptor (summary in words) is “no significant affinity”. Moreover, the “affinity for delta receptors” value on human opioid δ receptor (summary in words) is “no significant affinity”.
[125I]Charybdotoxin: the Kd in [5] (radioligand of the assay) is 0.1 nM.
[125I]Apamin: in data set [10], the Kd was 0.07 nM.
On to [Cys^3,4,10, D-Phe7]-α-Msh4-13, for which, in data set [2], the “binding affinity improved over the previous rhenium complex” value is reported as 25 fold and the “binding affinity reduced compared with the disulfide parent” value is given as 4 fold.

Usually Ki stands for a dissociation constant, usually derived from enzyme kinetics or from competition with a known ligand. Usually Kd stands for the concentration at which binding is half-saturated.
